Tests used:
[1] = test system: S. aureus (MRSA SAP0017) biofilms; test: Static microtitre plate antibiofilm screen (crystal violet); type: cell-based, Staphylococcus aureus; settings: SPOT-synthesized peptides (60–70% purity), ~6.25 μM, TSB with 1% glucose, 24 h 37 °C, crystal violet A595, mean of three biological replicates; Fig. 1b matrix
Experimental: The SPOT-synthesized peptides were evaluated for their antibiofilm activity in vitro as described previously. Briefly, 5 μl of SPOT-peptide stock solution or a corresponding serial dilution was placed in a 96-well polypropylene round bottom plate (Corning Inc. Corning, NY) and 95 μl of a 1/100 dilution of an overnight culture of MRSA SAP0017 in TSB supplemented with 1% glucose was added to each well. The plates were incubated overnight at 37 °C to allow for bacterial growth and biofilm maturation. After 24 hours, the media containing planktonic bacteria was rinsed from each well with distilled water and the remaining biomass was stained with 0.1% crystal violet. The unbound dye was rinsed away and the biofilm bound dye was suspended in 70% ethanol and the absorbance at 595 nm was recorded on a plate reader. Percent biofilm inhibition was calculated by comparison to the amount of crystal violet stain in the untreated controls (defined as 100%) and the sterility control wells (defined as 0%). Results from three separate biological replicates were averaged and outliers were identified using the modified Thompson Tau test and removed from the analysis. The antibiofilm activity of all SPOT-derived peptides was assessed at multiple concentrations (up to five 2-fold dilutions from the stock solution) and the peptide concentration yielding the largest difference in percent inhibition of biofilm growth was used in subsequent analysis.

[2] = test system: planktonic S. aureus MRSA (SAP0017); test: MIC determination, broth microdilution; type: cell-based, Staphylococcus aureus; settings: broth microdilution, ~5 × 10^5 CFU/ml, 37 °C overnight, visual read, mean of three biological replicates
Experimental: The MIC of the synthesized peptides was determined in both Mueller Hinton Broth (MHB) and Tryptic Soy Broth (TSB) supplemented with 1% glucose, using the broth microdilution method[21] with slight modifications. Briefly, 10 μl of a 10× concentrated peptide stock solution, vancomycin antibiotic, or vehicle control (water) was placed in the bottom of a well in a 96-well polypropylene round bottom plate (Corning Inc. Corning, NY). A bacterial suspension of S. aureus MRSA (SAP0017, clinical isolate kindly provided by Dr. Tony Chow, Vancouver General Hospital) was prepared from an overnight culture to a final cell density of ~5 × 10^5 CFU/ml and 90 μl of this was added to each well.

[3] = test system: MRSA SAP0017 biofilms grown in flow cells; test: Eradication of pre-formed biofilms in flow cells; type: cell-based, Staphylococcus aureus; settings: BM2 media, SYTO-9/propidium iodide, confocal microscopy
Experimental: Bacterial biofilms were grown in BM2 media (62 mM potassium phosphate buffer, pH 7, 7 mM (NH4)2SO4, 2 mM MgSO4, 10 μM FeSO4 and 0.4% (wt/vol) glucose) for 48 hours followed by treatment with peptide (2 or 0.125 µM) for an additional 24 hours. The samples were stained with SYTO-9 and propidium iodide fluorescent dyes to image total and dead cells, respectively. Flow-cell images were acquired on an Olympus FluoView FV1000 confocal laser scanning microscope (Olympus Corp. Tokyo, Japan) and were analyzed with the Fiji software package.

[4] = test system: peripheral blood mononuclear cells (PBMCs); test: Cytotoxicity, LDH release assay; type: cell-based, human; settings: peptide concentrations as high as 40 µM
Experimental: The cytotoxicity and immunomodulatory activity of both 1018 and 3002 was assessed as described previously. Briefly, peripheral blood mononuclear cells (PBMCs) were collected from healthy volunteers in accordance with the University of British Columbia ethics guidelines. PBMCs were plated in Costar 96-well flat bottom tissue culture treated plates at a final density of 1 × 10^6 cells/ml in RPMI media supplemented with 10% fetal bovine serum. […] Cytotoxicity was assessed using the Cytotoxicity Detection Kit (Roche Diagnostics, Basel, Switzerland) which measures lactate dehydrogenase activity released from damaged cells. Immune modulation was characterized by measuring the production of MCP-1 chemokine by induced by peptide alone as well as the suppression of interleukin (IL)-1β from PBMCs stimulated with 10 ng/ml Pseudomonas aeruginosa PAO1 lipopolysaccharide. Levels of MCP-1 and IL-1β were quantified by enzyme linked immunosorbent assays (ELISAs) using kits from eBioscience Inc. (San Diego, CA).

MRSA USA300 LAC = test: Murine cutaneous abscess model; type: in vivo, CD-1 mice; settings: 14 mg/kg
Experimental: The in vivo activity of the identified antibiofilm peptide 3002 and the parental compound 1018 was evaluated using a recently described murine abscess model of chronic MRSA infections. All animal experiments were performed in accordance with The Canadian Council on Animal Care (CCAC) guidelines and were approved by the University of British Columbia Animal Care Committee. Briefly, the fur on the backs of 6-week old female CD-1 mice (Charles River Laboratories, Wilmington, MA) was removed by shaving and subsequent treatment with depilatory cream. MRSA USA300 LAC was grown to an optical density at 600 nm of 1 in tryptic soy broth (TSB) at which point cells were washed twice with sterile PBS and then suspended in PBS to a final cell density of 5 × 10^7 CFU/50 μL. Mice were infected with 50 μL of bacteria subcutaneously on the right flank of the back and 1 hour later, given saline (for controls) or treated with 14 mg/kg peptide (1018 or 3002) via intra-abscess injection. Mice were monitored daily and their weight as well as abscess lesion sizes (measured using a caliper) were recorded every 24 hrs. Visible dermonecrosis or white lesions (filled with pus) were considered as part of the abscess lesion while swelling/inflammation was disregarded in the abscess size measurements. Three days post-infection, abscesses were excised and homogenized using a Bead Ruptor 4 tissue homogenizer (OMNI International, Kennesaw GA) for 5 minutes and serially plated for viable CFU quantification.

[5] = test system: biofilms formed by P. aeruginosa, Escherichia coli and MRSA; settings: combination with various antimicrobial agents; cited from earlier work
Description: For example, when peptide 1018 was used in combination with various antimicrobial agents, it decreased the amount of drug required to treat biofilms formed by P. aeruginosa, Escherichia coli and MRSA (among others) by up to 64-fold[30]. […] It is likely that such synergistic effects would be conserved with the latest pept ...

Substance: VRLIVAVRIWRR-NH2 [compound 1018, synthetic immunomodulatory cationic peptide, 12-residue derivative of bovine bactenecin; parent template, reference compound]
- percent residual biofilm after treatment with peptide [1]: 31%
- MIC, MHB ([2]; Mueller Hinton Broth): 4 µM
- MIC, TSB with 1% Glucose ([2]; Tryptic Soy Broth with 1% glucose): >64 µM
- eradication of 2-day old pre-formed MRSA biofilms ([3]; 0.125 μM peptide for 24 h): virtually identical to untreated controls
- eradication of 2-day old pre-formed MRSA biofilms ([3]; 2 µM peptide for 24 h): effectively eradicated
- cytotoxicity (LDH release) [4]: less than 15%
- reduction of abscess lesion size compared to untreated controls (MRSA USA300 LAC; single intra-abscess injection 1 h after infection, 3 days): 2.4 fold
- effect on bacterial load recovered from the abscesses (MRSA USA300 LAC; single intra-abscess injection, CFU three days post-infection): neither peptide had any effect
- decrease in amount of drug required to treat biofilms in combination with peptide [5]: up to 64 fold
